Measurements published in ChEMBL document CHEMBL1201862, “PubChem BioAssay data set” (2004).
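1) Cells in 96-well plates. 2) Compound, 48 h, 5 concentrations. 3) Linear interpolation between surrounding doses. 4) Unreached endpoint = highest concentration. GI50 is the concentration that inhibits growth by half.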 Activity calls are given as the source filed them. Rule as the data show it: active = GI50 up to about 1.1 µM and inactive = higher.

Columns and labels:
Experiment in all cases: DTP human tumour cell line panel, 48 h
786-0 = test system: 786-0
A498 = test system: A498
ACHN = test system: ACHN
BT-549 = test system: BT-549
CAKI-1 = test system: CAKI-1
CCRF-CEM = test system: CCRF-CEM
COLO 205 = test system: COLO 205
DU-145 = test system: DU-145
EKVX = test system: EKVX
HCC 2998 = test system: HCC 2998
HCT-116 = test system: HCT-116
HCT-15 = test system: HCT-15
HL-60 = test system: HL-60
HOP-62 = test system: HOP-62
HOP-92 = test system: HOP-92
HT-29 = test system: HT-29
Hs-578T = test system: Hs-578T
IGROV-1 = test system: IGROV-1
K562 = test system: K562
KM12 = test system: KM12
LOX IMVI = test system: LOX IMVI
M14 = test system: M14
MCF7 = test system: MCF7
MDA-MB-231 = test system: MDA-MB-231
MDA-MB-435 = test system: MDA-MB-435
MDA-N = test system: MDA-N
MOLT-4 = test system: MOLT-4
Malme-3M = test system: Malme-3M
NCI-H226 = test system: NCI-H226
NCI-H23 = test system: NCI-H23
NCI-H460 = test system: NCI-H460
NCI-H522 = test system: NCI-H522
NCI/ADR-RES = test system: NCI/ADR-RES
OVCAR-3 = test system: OVCAR-3
OVCAR-4 = test system: OVCAR-4
OVCAR-5 = test system: OVCAR-5
OVCAR-8 = test system: OVCAR-8
PC-3 = test system: PC-3
RPMI-8226 = test system: RPMI-8226
RXF 393 = test system: RXF 393
SF-268 = test system: SF-268
SF-295 = test system: SF-295
SF-539 = test system: SF-539
SK-MEL-28 = test system: SK-MEL-28
SK-MEL-2 = test system: SK-MEL-2
SK-MEL-5 = test system: SK-MEL-5
SK-OV-3 = test system: SK-OV-3
SN12C = test system: SN12C
SNB-19 = test system: SNB-19
SNB-75 = test system: SNB-75
SR = test system: SR
SW-620 = test system: SW-620
T47D = test system: T47D
TK-10 = test system: TK-10
U-251 = test system: U-251
UACC-257 = test system: UACC-257
UACC-62 = test system: UACC-62
UO-31 = test system: UO-31
A549 = test system: A549

Measured: GI50

c1ccc2c(c1)Sc1nccc3ccnc-2c13
> 10 µM: HCT-15
inactive: 786-0 80.4 µM | A498 16.6 µM | ACHN 13.8 µM | BT-549 77.1 µM | CAKI-1 7.13 µM | CCRF-CEM 56.9 µM | COLO 205 48.3 µM | DU-145 > 100 µM | EKVX 10.6 µM | HCC 2998 33.3 µM | HCT-116 27.4 µM | HL-60 27.8 µM | HOP-62 35.8 µM | HOP-92 43.6 µM | HT-29 11.9 µM | Hs-578T 14 µM | IGROV-1 27.7 µM | K562 71.3 µM | KM12 61 µM | LOX IMVI 28.9 µM | M14 79.1 µM | MCF7 12.6 µM | MDA-MB-231 > 100 µM | MDA-MB-435 39.5 µM | MDA-N 57.3 µM | MOLT-4 8.26 µM | Malme-3M 31.6 µM | NCI-H226 27.9 µM | NCI-H23 36.8 µM | NCI-H460 5.57 µM | NCI-H522 21.9 µM | NCI/ADR-RES 25.2 µM | OVCAR-3 > 100 µM | OVCAR-4 59.2 µM | OVCAR-5 > 100 µM | OVCAR-8 21.9 µM | PC-3 39.2 µM | RPMI-8226 55.5 µM | RXF 393 63.8 µM | SF-268 18.7 µM | SF-295 33.3 µM | SF-539 47.6 µM | SK-MEL-28 36.9 µM | SK-MEL-2 > 100 µM | SK-MEL-5 19.1 µM | SK-OV-3 > 100 µM | SN12C 39 µM | SNB-19 20.7 µM | SNB-75 15.2 µM | SR 11.9 µM | SW-620 19.3 µM | T47D 27.7 µM | TK-10 12.4 µM | U-251 23.9 µM | UACC-257 73.6 µM | UACC-62 23.3 µM | UO-31 7.5 µM

COC(=O)C1(Cc2cccc(C)c2)Cc2c(C)cccc2C1=O (configuration not stated)
32.1 µM: HCT-15
inactive: 786-0 93.8 µM | A498 34 µM | A549 38.6 µM | ACHN > 100 µM | BT-549 56.1 µM | CAKI-1 64.9 µM | CCRF-CEM 61.8 µM | COLO 205 37.2 µM | DU-145 > 100 µM | EKVX 29.1 µM | HCC 2998 55.5 µM | HCT-116 36.4 µM | HL-60 > 100 µM | HOP-62 59.6 µM | HOP-92 30.4 µM | HT-29 29.6 µM | Hs-578T 38.5 µM | IGROV-1 46.9 µM | K562 35.9 µM | KM12 28.1 µM | LOX IMVI 50.1 µM | M14 34.4 µM | MCF7 33.7 µM | MDA-MB-231 52.8 µM | MDA-MB-435 14.1 µM | MDA-N 14.3 µM | MOLT-4 36.8 µM | Malme-3M 33.9 µM | NCI-H226 44.9 µM | NCI-H23 37.5 µM | NCI-H460 45.4 µM | NCI-H522 22.6 µM | NCI/ADR-RES 24 µM | OVCAR-3 24.5 µM | OVCAR-4 41.7 µM | OVCAR-5 > 100 µM | OVCAR-8 80.7 µM | PC-3 27.2 µM | RPMI-8226 > 100 µM | RXF 393 29.4 µM | SF-268 58.5 µM | SF-295 38.2 µM | SF-539 38.4 µM | SK-MEL-28 > 100 µM | SK-MEL-2 32.7 µM | SK-MEL-5 38.5 µM | SK-OV-3 58.6 µM | SN12C 44.9 µM | SNB-19 98.9 µM | SNB-75 43.3 µM | SR > 100 µM | SW-620 31.4 µM | T47D 28.4 µM | TK-10 89.3 µM | U-251 38.7 µM | UACC-257 82.8 µM | UACC-62 46.8 µM | UO-31 42.6 µM
